Results taken from patent US20250043360A1, “USE OF RPN11 MARKER IN DETECTION OF MYELOMA AND DISEASE RISK THEREOF, PROGNOSIS ANALYSIS AND TREATMENT MEDICAMENT” (Peking University, priority 2022, published 2025).

What was measured:
Assay type in all cases: cell-based
[1] = system: LP-1 cells; experiment: CCK cell counting assay, RPN11 inhibitor combined with Lenalidomide or Dexamethasone; details: vs either agent alone, range of concentrations, FIG. 8
Procedure: (§1) CCK kit was used to detect cell proliferation of LP-1 cells stably overexpressing and knocking down RPN11: after the transfected cells were cultured for 48 h, the cells were digested with 0.25% trypsin and counted, inoculated in a 96-well plate at a concentration of 1×10^4 cells/mL, 100 μL in each well; 10 μL of CCK8 reagent was added to each well of the 96-well plate in the dark, the culture plate was shaken for 3 min, then placed into the incubator to continue culturing for 2 h, and the culture plate was taken out and the OD value was measured at a wavelength of 450 nm with a microplate reader.
LP-1 cells were treated with RPN11 inhibitors (OPA or Capzimin) or/and Lenalidomide or Dexamethasone (within a range of concentrations), and the cell proliferation ability was detected using CCK cell counting assay.

[2] = system: bortezomib-resistant LP-1 cells (LP-1BR); experiment: CCK cell counting experiment, bortezomib-resistant LP-1 cells; details: LP-1BR cells, vs control group (Vehicle); OPA 10 μM, Capzimin 2 μM; FIG. 7A
Procedure: as §1
(§2) Wild-type or bortezomib-resistant LP-1 cells (LP-1 or LP-1BR) were treated with Vehicle or RPN11 inhibitor (OPA or Capzimin) separately, and the proliferation and apoptosis of LP-1BR cells were detected through CCK cell counting experiment and cell apoptosis experiment.

[3] = system: bortezomib-resistant LP-1 cells (LP-1BR); experiment: Cell apoptosis experiment, bortezomib-resistant LP-1 cells; details: LP-1BR cells, vs control group (Vehicle); OPA 10 μM, Capzimin 2 μM; FIG. 7B
Procedure: (§3) Apoptosis was detected in LP-1 cells stably overexpressing and knocking down RPN11. The cells were treated with camptothecin (CPT) for 24 h, washed with PBS, double-stained with Annexin V-APC/propidium iodide (PI) for 15 min at room temperature in the dark, and cell collection and analysis were conducted on each sample using a FACS Calibur flow cytometer.
as §2

[4] = system: LP-1 cells; experiment: Cell apoptosis experiment, wild-type LP-1 cells; details: vs control group (Vehicle), OPA 10 μM, Capzimin 2 μM, FIG. 7B
Procedure: as §3, §2

[5] = system: LP-1 cells; experiment: CCK cell counting experiment, wild-type LP-1 cells; details: vs control group (Vehicle), OPA 10 μM, Capzimin 2 μM, FIG. 7A
Procedure: as §1, §2

c1cnc2c(c1)ccc1cccnc12 [OPA]
combined treatment effect on inhibiting the growth and proliferation ([1]; combined with dexamethasone): synergistic effect | combined treatment effect on inhibiting the growth and proliferation ([1]; combined with lenalidomide): synergistic effect | proliferation ability [2]: significantly reduced | number of apoptotic cells [3]: significantly increased | number of apoptotic cells [4]: significantly increased | proliferation ability [5]: significantly reduced
